Measured values published in paper PMC4356144, “The kinase LYK5 is a major chitin receptor in Arabidopsis and forms a chitin-induced complex with related kinase CERK1” (eLife, 2014).
Each block holds one molecule with its values, some of them ahead of it.

Tests used:
[1] = target: T1, AtLYK5 (full-length, HA-tagged) (Arabidopsis thaliana, UniProt O22808); test: competition of chitin magnetic bead pull-down, anti-HA immunoblot; assay type: biochemical; settings: protoplasts treated with 10 µM oligomer for 15 min before harvest
T1 construct: gene LYK5; full-length cDNA, HA tag, 35S promoter, Arabidopsis Col-0 protoplasts
T1 sequence (O22808 27-664): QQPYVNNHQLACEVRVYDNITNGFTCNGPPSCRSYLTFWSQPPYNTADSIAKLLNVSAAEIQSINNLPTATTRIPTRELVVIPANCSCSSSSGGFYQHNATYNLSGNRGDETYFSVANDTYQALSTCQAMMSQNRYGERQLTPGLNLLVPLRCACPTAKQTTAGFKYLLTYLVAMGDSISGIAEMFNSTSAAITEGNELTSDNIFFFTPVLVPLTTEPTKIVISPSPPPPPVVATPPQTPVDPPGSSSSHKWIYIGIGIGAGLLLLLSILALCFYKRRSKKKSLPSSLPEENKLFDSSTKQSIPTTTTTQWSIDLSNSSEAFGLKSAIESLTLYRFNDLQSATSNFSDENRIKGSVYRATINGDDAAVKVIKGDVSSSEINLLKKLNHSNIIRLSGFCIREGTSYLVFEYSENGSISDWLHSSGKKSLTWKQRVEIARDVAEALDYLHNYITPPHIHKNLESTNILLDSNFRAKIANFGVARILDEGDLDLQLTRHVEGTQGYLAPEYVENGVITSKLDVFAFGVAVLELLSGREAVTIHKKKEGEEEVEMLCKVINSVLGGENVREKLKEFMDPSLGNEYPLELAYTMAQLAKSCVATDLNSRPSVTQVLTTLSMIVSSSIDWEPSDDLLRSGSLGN

AtLYK5 (ectodomain) = target: T2, AtLYK5 (ectodomain) (Arabidopsis thaliana, UniProt O22808); test: isothermal titration calorimetry; assay type: binding; settings: 10 mM HEPES pH 7.5, 100 mM NaCl, 25°C
T2 construct: gene LYK5; ectodomain 27-278 aa, E. coli BL21, pMCSG73; thrombin site before His tag, thrombin-cleaved, then Strep-Tactin purified
T2 sequence (O22808 27-278): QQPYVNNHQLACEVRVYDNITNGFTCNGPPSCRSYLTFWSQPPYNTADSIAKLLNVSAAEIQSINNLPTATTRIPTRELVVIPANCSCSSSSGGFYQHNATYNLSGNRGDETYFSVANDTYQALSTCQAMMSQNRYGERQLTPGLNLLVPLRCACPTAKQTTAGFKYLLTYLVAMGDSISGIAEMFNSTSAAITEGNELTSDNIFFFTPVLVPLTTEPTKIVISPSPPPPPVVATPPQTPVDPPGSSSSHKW

[2] = target: T3, wheat germ agglutinin (WGA); test: isothermal titration calorimetry; assay type: binding; settings: 10 mM HEPES pH 7.5, 100 mM NaCl, 25°C
T3 construct: gene WGA1

AtCERK1 (ectodomain) = target: T4, AtCERK1 (ectodomain) (Arabidopsis thaliana, UniProt A8R7E6); test: isothermal titration calorimetry; assay type: binding; settings: 10 mM HEPES pH 7.5, 100 mM NaCl, 25°C
T4 construct: gene CERK1; ectodomain 24-231 aa, pMAL-c2G (MBP fusion), amylose resin purified, E. coli
T4 sequence (A8R7E6 24-231): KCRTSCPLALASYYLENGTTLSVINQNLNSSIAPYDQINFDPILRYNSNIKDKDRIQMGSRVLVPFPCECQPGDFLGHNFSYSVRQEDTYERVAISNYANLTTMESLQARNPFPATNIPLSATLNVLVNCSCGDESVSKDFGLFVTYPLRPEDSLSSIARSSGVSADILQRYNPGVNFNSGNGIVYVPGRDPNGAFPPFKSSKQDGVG

[3] = target: T5, AtLYK4 (full-length, HA-tagged) (Arabidopsis thaliana, UniProt O64825); test: competition of chitin magnetic bead pull-down, anti-HA immunoblot; assay type: biochemical; settings: protoplasts treated with 10 µM oligomer for 15 min before harvest
T5 construct: gene LYK4; full-length cDNA, HA tag, 35S promoter, Arabidopsis Col-0 protoplasts
T5 sequence (O64825 23-612): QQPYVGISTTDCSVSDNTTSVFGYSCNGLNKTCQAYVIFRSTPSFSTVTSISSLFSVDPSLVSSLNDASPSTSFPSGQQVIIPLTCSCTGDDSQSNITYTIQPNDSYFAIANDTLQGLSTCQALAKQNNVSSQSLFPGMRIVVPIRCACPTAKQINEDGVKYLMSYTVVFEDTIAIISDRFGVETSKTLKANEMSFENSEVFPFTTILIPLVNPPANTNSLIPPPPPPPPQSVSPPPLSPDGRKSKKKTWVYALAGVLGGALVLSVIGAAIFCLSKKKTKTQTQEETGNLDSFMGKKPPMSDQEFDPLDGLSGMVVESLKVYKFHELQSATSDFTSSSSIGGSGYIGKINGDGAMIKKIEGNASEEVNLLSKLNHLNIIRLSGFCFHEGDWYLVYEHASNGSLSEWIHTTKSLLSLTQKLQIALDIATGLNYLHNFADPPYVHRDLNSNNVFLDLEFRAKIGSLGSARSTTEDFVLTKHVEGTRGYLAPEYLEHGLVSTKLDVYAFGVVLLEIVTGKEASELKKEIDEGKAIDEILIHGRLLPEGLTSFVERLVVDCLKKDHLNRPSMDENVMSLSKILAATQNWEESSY

AtCERK1 kinase domain = target: T6, AtCERK1 kinase domain (Arabidopsis thaliana, UniProt A8R7E6); test: in vitro autophosphorylation, […] autoradiography; assay type: biochemical; settings: 50 mM Tris pH 7.6, 50 mM KCl, 10 mM MnCl2, 10 mM MgCl2, room temperature; labelled compound
T6 construct: gene CERK1; intracellular kinase domain 255-617 aa, N-terminal GST, pGEX 5X-1, E. coli BL21 (DE3)
T6 sequence (A8R7E6 255-617): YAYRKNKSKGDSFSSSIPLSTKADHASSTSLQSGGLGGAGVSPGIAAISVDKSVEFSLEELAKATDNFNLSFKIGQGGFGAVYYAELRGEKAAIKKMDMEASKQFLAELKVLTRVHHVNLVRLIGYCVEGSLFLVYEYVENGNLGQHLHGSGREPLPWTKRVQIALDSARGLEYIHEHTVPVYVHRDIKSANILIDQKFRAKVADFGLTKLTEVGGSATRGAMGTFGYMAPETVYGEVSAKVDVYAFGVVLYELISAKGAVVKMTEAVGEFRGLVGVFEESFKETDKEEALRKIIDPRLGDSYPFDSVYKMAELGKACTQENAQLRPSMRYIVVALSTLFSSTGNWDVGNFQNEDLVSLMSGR

[4] = target: the molecule itself; test: SDS-PAGE without reducing agent and immunoblot; crude protein of transgenic Arabidopsis expressing AtLYK5-HA in Atlyk5-2, before or 15 min after 1 µM chitooctaose, boiled 5 min without DTT; anti-HA blot

Molecule: CC(=O)N[C@H]1[C@H](O[C@H]2[C@H](O)[C@@H](NC(C)=O)[C@H](O[C@H]3[C@H](O)[C@@H](NC(C)=O)[C@H](O[C@H]4[C@H](O)[C@@H](NC(C)=O)C(O)O[C@@H]4CO)O[C@@H]3CO)O[C@@H]2CO)O[C@H](CO)[C@@H](O[C@@H]2O[C@H](CO)[C@@H](O[C@@H]3O[C@H](CO)[C@@H](O[C@@H]4O[C@H](CO)[C@@H](O)[C@H](O)[C@H]4NC(C)=O)[C@H](O)[C@H]3NC(C)=O)[C@H](O)[C@H]2NC(C)=O)[C@@H]1O (some centres unmarked) [7mer, chitoheptaose]
competition of chitin magnetic bead pull-down, anti-HA immunoblot [1]: The binding with AtLYK5 was strongly inhibited by chitoheptaose and chitooctaose

Kd (AtLYK5 (ectodomain)): 1720 nM | Kd [2]: 1600 nM | Kd (AtCERK1 (ectodomain)): 455000 nM
Molecule: CC(=O)N[C@H]1[C@H](O[C@H]2[C@H](O)[C@@H](NC(C)=O)[C@H](O[C@H]3[C@H](O)[C@@H](NC(C)=O)[C@H](O[C@H]4[C@H](O)[C@@H](NC(C)=O)C(O)O[C@@H]4CO)O[C@@H]3CO)O[C@@H]2CO)O[C@H](CO)[C@@H](O[C@@H]2O[C@H](CO)[C@@H](O[C@@H]3O[C@H](CO)[C@@H](O[C@@H]4O[C@H](CO)[C@@H](O[C@@H]5O[C@H](CO)[C@@H](O)[C@H](O)[C@H]5NC(C)=O)[C@H](O)[C@H]4NC(C)=O)[C@H](O)[C@H]3NC(C)=O)[C@H](O)[C@H]2NC(C)=O)[C@@H]1O (some centres unmarked) [8mer, chitooctaose]
competition of chitin magnetic bead pull-down, anti-HA immunoblot [1]: The binding with AtLYK5 was strongly inhibited by chitoheptaose and chitooctaose | competition of chitin magnetic bead pull-down, anti-HA immunoblot [3]: the binding with AtCERK1 or AtLYK4 was only slightly reduced by the same competitors

Molecule: Nc1ncnc2c1ncn2[C@@H]1O[C@H](COP(=O)(O)OP(=O)(O)OP(=O)(O)O)[C@@H](O)[C@H]1O [ATP]
in vitro autophosphorylation, 32P autoradiography (AtCERK1 kinase domain): the AtCERK1 kinase domain showed strong kinase activity as previously reported

B1: AtLYK5-HA (full length AtLYK5 under its native promoter in Atlyk5-2 mutant plants) (receptor, Arabidopsis thaliana, UniProt O22808 27-664, looked up)
chain: T1 sequence (O22808 27-664)
notes: AtLYK5 (At2g33580), Arabidopsis thaliana; genomic fragment with the 1.8 kb promoter and the coding region up to the stop codon, in pGWB13; also called wild-type AtLYK5; source: transgenic Arabidopsis (Atlyk5-2 background, native promoter), in crude extract or lysate
stoichiometry N [4]: 2
